Measurements: patent US20260274829A1, “NEW E3 UBIQUITIN LIGASE LIGAND, PROTEIN DEGRADATION AGENT AND USE THEREOF” (GLUETACS THERAPEUTICS (SHANGHAI) CO., LTD., priority 2023, published 2026)

How the values were obtained:
[1] = target: T1, GSPT1 (Homo sapiens, UniProt P15170+Q96SW2); assay: Western blot degradation of GSPT1 in hPBMC; format: cell-based
T1 construct: endogenous in cells; host or cells: hPBMC
Procedure: (§1) Conventional Western blot assay was performed to evaluate the effects of the compounds of the present disclosure on the expression of target proteins in cells.
(§2) • (1) Cell Seeding and Protein Harvesting: The selected cells were processed according to the cell seeding procedure and protein harvesting procedure in Table III-2.
(§3) • (2) To the collected supernatant, 5×SDS sample loading buffer was added, followed by denaturation at 95° C. for 5 minutes. The denatured samples were then separated by SDS-PAGE electrophoresis on a polyacrylamide gel. Proteins were transferred to a nitrocellulose membrane ([…] NC membrane), blocked with blocking buffer at room temperature for 1 hour, and subjected to antibody incubation and development procedures according to the antibody manufacturer's instructions (Cell Signaling Technology).
(§4) Half-Maximal Degradation Concentration value (the drug concentration required for degrading proteins by 50%, abbreviated as DC50) reads method: comparing the grayscale values of Western blot bands from drug-treated samples with those from blank DMSO-treated controls, and identifying the drug concentration range at which the grayscale value is half that of the DMSO-treated control bands.
(§5) DC50 values can be calculated using ImageJ software to measure grayscale values of Western blot bands from drug-treated samples. The concentration-response curve is fitted to estimate the drug concentration corresponding to half the grayscale value.
(§6) Target protein remaining (0%) refers to the percentage of target protein remaining in hPBMC cells after treatment with protein degrader compounds.
(§7) Calculation method for target protein remaining (0%): Use ImageJ software to measure grayscale values of Western blot bands from drug (protein degrader)-treated samples. The grayscale value of drug-treated bands is divided by that of internal control protein bands, and the resulting quotient is normalized to obtain the relative percentage of remaining target protein after protein degrader treatment.

[2] = target: T2, IKZF3 (Homo sapiens, UniProt Q96SW2+Q9UKT9); assay: Western blot degradation of IKZF3 in hPBMC; format: cell-based
T2 construct: endogenous in cells; host or cells: hPBMC
Procedure: as §1, §2, §3, §4, §5, §6, §7

[3] = target: T3, IKZF1 (Homo sapiens, UniProt Q13422+Q96SW2); assay: Western blot degradation of IKZF1 in hPBMC; format: cell-based
T3 construct: endogenous in cells; host or cells: hPBMC
Procedure: as §1, §2, §3, §4, §5, §6, §7

[4] = target: T4, CK1a (Homo sapiens, UniProt P48729+Q96SW2); assay: Western blot degradation of CK1a in hPBMC; format: cell-based
T4 construct: endogenous in cells; host or cells: hPBMC
Procedure: as §1, §2, §3, §4, §5, §6, §7

[5] = target: T5, WEE1 (Homo sapiens, UniProt P30291+Q96SW2); assay: Western blot degradation of WEE1 in hPBMC; format: cell-based
T5 construct: endogenous in cells; host or cells: hPBMC
Procedure: as §1, §2, §3, §4, §5, §6, §7

[6] = target: T6, IKZF2 (Homo sapiens, UniProt Q96SW2+Q9UKS7); assay: Western blot degradation of IKZF2 in hPBMC; format: cell-based
T6 construct: endogenous in cells; host or cells: hPBMC
Procedure: as §1, §2, §3, §4, §5, §6, §7

[7] = target: T7, human Cereblon WT GST-tagged protein (Homo sapiens, UniProt Q96SW2); assay: CRBN binding, HTRF CEREBLON BINDING kit; conditions: CRBN binding, HTRF CEREBLON BINDING kit
T7 construct: purchased CISBIO 64BDCRBNPEH
How it was run: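 HTRF competition in which test compounds displace a Thalidomide-Re tracer from GST-tagged human Cereblon WT, detected with a GST Eu antibody. Incubation lasted 3 hours at room temperature, with emission read at 620 and 665 nm. Inhibition rate was derived from 665/620 ratios relative to blank and solvent control wells.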

T4 sequence (P48729 whole entry): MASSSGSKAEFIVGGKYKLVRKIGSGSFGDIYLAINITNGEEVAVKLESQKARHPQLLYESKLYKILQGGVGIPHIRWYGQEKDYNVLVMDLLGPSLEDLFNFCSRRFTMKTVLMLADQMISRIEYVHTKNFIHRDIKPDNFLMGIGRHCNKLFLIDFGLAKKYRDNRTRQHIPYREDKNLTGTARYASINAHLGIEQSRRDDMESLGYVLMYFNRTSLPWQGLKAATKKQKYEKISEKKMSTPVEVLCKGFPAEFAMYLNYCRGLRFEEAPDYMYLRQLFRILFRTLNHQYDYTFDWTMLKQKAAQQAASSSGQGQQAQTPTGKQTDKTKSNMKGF
T4 sequence (Q96SW2 whole entry): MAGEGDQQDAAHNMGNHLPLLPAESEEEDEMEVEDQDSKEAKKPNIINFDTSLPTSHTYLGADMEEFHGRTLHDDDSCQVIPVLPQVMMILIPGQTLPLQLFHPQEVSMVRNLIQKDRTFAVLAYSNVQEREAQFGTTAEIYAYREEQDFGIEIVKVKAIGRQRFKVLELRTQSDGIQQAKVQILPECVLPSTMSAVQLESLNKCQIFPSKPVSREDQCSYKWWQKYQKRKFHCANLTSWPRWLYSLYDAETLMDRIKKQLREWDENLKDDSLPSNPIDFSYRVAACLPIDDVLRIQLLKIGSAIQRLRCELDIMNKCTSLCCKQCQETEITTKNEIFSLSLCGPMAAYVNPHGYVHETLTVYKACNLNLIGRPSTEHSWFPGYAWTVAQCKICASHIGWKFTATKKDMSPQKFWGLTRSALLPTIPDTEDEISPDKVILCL
T4 sequence (Q16531 whole entry partner): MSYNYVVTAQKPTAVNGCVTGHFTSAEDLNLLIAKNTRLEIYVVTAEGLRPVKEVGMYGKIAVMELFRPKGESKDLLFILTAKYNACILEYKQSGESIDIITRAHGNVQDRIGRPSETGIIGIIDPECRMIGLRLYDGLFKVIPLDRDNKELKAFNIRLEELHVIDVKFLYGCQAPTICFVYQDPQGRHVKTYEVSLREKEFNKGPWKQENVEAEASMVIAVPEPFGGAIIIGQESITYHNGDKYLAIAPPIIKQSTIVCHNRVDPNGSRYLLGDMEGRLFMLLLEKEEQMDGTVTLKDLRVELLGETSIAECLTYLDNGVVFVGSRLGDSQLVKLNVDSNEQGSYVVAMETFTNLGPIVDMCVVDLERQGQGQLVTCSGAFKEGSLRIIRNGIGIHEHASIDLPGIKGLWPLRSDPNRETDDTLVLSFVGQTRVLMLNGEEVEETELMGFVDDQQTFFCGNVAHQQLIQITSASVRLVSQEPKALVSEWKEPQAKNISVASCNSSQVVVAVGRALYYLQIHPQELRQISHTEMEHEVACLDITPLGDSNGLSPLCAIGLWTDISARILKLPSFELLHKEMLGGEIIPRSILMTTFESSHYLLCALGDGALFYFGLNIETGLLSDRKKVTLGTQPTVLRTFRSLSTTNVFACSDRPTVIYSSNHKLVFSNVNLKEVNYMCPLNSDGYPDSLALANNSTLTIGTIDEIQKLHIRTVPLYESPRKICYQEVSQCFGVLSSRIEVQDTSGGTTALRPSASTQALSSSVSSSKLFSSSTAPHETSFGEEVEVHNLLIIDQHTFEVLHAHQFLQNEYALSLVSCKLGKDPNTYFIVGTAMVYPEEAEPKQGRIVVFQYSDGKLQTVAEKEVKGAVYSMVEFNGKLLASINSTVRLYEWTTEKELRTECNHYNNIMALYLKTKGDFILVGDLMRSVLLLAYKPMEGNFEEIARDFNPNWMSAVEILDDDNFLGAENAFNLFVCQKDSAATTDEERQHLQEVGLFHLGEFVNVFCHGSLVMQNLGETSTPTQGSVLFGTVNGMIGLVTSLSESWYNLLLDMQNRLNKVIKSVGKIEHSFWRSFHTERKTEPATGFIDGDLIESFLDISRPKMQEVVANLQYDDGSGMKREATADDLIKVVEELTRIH
T3 sequence (Q13422 whole entry): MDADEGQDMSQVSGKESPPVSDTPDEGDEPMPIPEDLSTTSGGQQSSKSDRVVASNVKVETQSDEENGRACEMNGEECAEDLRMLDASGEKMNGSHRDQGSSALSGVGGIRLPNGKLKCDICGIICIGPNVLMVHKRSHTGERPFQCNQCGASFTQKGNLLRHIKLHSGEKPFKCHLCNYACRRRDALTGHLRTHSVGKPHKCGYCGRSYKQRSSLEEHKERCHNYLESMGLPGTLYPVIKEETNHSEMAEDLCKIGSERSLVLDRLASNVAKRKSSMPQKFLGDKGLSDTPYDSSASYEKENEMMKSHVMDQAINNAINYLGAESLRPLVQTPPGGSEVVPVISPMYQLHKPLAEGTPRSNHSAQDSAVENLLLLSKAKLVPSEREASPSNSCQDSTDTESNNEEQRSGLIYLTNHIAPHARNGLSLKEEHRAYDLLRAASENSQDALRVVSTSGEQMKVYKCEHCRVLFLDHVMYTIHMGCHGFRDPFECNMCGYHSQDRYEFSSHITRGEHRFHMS
T3 sequence (Q96SW2 whole entry): as the sequence (Q96SW2 whole entry) above
T3 sequence (Q16531 whole entry partner): as the sequence (Q16531 whole entry partner) above
T2 sequence (Q9UKT9 whole entry): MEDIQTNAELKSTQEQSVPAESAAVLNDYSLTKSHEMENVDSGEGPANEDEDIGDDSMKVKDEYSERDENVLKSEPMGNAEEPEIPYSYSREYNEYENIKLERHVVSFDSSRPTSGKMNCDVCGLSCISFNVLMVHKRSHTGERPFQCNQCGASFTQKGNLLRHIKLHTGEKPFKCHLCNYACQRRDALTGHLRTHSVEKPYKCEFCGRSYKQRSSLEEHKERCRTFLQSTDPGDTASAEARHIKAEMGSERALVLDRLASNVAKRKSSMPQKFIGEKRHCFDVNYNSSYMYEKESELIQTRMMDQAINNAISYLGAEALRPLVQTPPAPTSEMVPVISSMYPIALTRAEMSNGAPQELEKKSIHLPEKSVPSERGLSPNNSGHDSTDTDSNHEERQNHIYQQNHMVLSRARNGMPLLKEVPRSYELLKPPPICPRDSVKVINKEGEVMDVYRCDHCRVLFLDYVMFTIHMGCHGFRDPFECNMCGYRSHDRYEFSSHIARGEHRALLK
T2 sequence (Q96SW2 whole entry): as the sequence (Q96SW2 whole entry) above
T2 sequence (Q16531 whole entry partner): as the sequence (Q16531 whole entry partner) above
T1 sequence (P15170 whole entry): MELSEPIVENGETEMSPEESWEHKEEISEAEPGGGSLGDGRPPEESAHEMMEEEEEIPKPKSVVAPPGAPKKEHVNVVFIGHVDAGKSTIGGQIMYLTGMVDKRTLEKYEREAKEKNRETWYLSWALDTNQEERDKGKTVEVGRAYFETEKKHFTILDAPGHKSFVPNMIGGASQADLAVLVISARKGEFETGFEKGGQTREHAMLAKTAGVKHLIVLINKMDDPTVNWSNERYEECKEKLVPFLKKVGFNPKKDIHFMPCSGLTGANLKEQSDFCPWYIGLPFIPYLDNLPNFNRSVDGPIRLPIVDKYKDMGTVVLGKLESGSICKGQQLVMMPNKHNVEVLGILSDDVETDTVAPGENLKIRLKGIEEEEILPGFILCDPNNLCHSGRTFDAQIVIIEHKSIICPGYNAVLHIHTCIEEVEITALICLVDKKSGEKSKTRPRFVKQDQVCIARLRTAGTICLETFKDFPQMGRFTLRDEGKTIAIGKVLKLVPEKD
T1 sequence (Q96SW2 whole entry): as the sequence (Q96SW2 whole entry) above
T1 sequence (Q16531 whole entry partner): as the sequence (Q16531 whole entry partner) above
T5 sequence (P30291 whole entry): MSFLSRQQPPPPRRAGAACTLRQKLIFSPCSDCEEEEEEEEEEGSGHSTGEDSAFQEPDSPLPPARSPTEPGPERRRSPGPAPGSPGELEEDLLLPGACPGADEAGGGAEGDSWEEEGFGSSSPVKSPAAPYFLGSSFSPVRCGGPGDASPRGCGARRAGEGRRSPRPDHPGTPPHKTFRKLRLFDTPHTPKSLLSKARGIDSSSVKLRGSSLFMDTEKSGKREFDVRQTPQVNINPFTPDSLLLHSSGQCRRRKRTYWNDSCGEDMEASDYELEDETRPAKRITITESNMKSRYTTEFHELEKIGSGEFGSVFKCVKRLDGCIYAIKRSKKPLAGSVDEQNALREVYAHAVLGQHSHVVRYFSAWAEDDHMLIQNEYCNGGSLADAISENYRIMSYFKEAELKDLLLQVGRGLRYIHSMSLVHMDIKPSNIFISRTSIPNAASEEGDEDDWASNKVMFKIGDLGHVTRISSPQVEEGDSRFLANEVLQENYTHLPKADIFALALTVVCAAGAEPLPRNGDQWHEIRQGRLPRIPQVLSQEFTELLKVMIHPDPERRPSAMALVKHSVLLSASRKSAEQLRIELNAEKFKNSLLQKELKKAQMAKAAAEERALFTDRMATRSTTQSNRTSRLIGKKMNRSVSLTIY
T5 sequence (Q96SW2 whole entry): as the sequence (Q96SW2 whole entry) above
T5 sequence (Q16531 whole entry partner): as the sequence (Q16531 whole entry partner) above
T7 sequence (Q96SW2 whole entry): as the sequence (Q96SW2 whole entry) above

Row | SMILES | Degradation of substrate protein GSPT1 (substrate protein remaining %) [1] | Degradation of substrate protein IKZF3 (substrate protein remaining %) [2] | Degradation of substrate protein IKZF1 (substrate protein remaining %) [3] | Degradation of substrate protein CK1a (substrate protein remaining %) [4] | Degradation of substrate protein WEE1 (substrate protein remaining %) [5] | Degradation of substrate protein IKZF2 (substrate protein remaining %) [6] | IC50 [7]
1 | O=C1CCC(c2ccc(CO)nc2)C(=O)N1 (stereo not shown) [GT-07010, 3-(6-(hydroxymethyl)pyridin-3-yl)piperidine-2,6-dione] | A (A is defined as 0% ≤ substrate protein remaining % ≤ 80%) | A (A is defined as 0% ≤ substrate protein remaining % ≤ 80%) | B (B is defined as substrate protein remaining % > 80%) | A (A is defined as 0% ≤ substrate protein remaining % ≤ 80%) | B (B is defined as substrate protein remaining % > 80%) | B (B is defined as substrate protein remaining % > 80%) | –
2 | O=C1CCC(c2cc(CO)c(F)cn2)C(=O)N1 (stereo not shown) [GT-07444, 3-(5-fluoro-4-(hydroxymethyl)pyridin-2-yl)piperidine-2,6-dione] | B (B is defined as substrate protein remaining % > 80%) | A (A is defined as 0% ≤ substrate protein remaining % ≤ 80%) | B (B is defined as substrate protein remaining % > 80%) | B (B is defined as substrate protein remaining % > 80%) | B (B is defined as substrate protein remaining % > 80%) | A (A is defined as 0% ≤ substrate protein remaining % ≤ 80%) | –
3 | NCc1cncc(N2CCC(=O)NC2=O)c1 [GT-07077, 1-(5-(aminomethyl)pyridin-3-yl)dihydropyrimidine-2,4(1H,3H)-dione] | A (A is defined as 0% ≤ substrate protein remaining % ≤ 80%) | B (B is defined as substrate protein remaining % > 80%) | B (B is defined as substrate protein remaining % > 80%) | B (B is defined as substrate protein remaining % > 80%) | B (B is defined as substrate protein remaining % > 80%) | B (B is defined as substrate protein remaining % > 80%) | –
4 | NCc1ccc(N2CCC(=O)NC2=O)nc1 [GT-07012, 1-(5-(aminomethyl)pyridin-2-yl)dihydropyrimidine-2,4(1H,3H)-dione] | A (A is defined as 0% ≤ substrate protein remaining % ≤ 80%) | A (A is defined as 0% ≤ substrate protein remaining % ≤ 80%) | B (B is defined as substrate protein remaining % > 80%) | B (B is defined as substrate protein remaining % > 80%) | A (A is defined as 0% ≤ substrate protein remaining % ≤ 80%) | B (B is defined as substrate protein remaining % > 80%) | –
5 | CC(C)(C)[Si](C)(C)OCc1ccc(NC2CCC(=O)NC2=O)nc1 (stereo not shown) [GT-07552, 3-((5-(((tert-butyldimethylsilyl)oxy)methyl)pyridin-2-yl)amino)piperidine-2,6-dione] | B (B is defined as substrate protein remaining % > 80%) | B (B is defined as substrate protein remaining % > 80%) | B (B is defined as substrate protein remaining % > 80%) | B (B is defined as substrate protein remaining % > 80%) | B (B is defined as substrate protein remaining % > 80%) | A (A is defined as 0% ≤ substrate protein remaining % ≤ 80%) | –
6 | O=C1CCC(Nc2cncc(CO)c2)C(=O)N1 (stereo not shown) [GT-07448, 3-((5-(hydroxymethyl)pyridin-3-yl)amino)piperidine-2,6-dione] | A (A is defined as 0% ≤ substrate protein remaining % ≤ 80%) | A (A is defined as 0% ≤ substrate protein remaining % ≤ 80%) | A (A is defined as 0% ≤ substrate protein remaining % ≤ 80%) | A (A is defined as 0% ≤ substrate protein remaining % ≤ 80%) | A (A is defined as 0% ≤ substrate protein remaining % ≤ 80%) | A (A is defined as 0% ≤ substrate protein remaining % ≤ 80%) | –
7 | CC(C)(C)[Si](C)(C)OCc1cncc(NC2CCC(=O)NC2=O)c1 (stereo not shown) [GT-07449, 3-((5-(((tert-butyldimethylsilyl)oxy)methyl)pyridin-3-yl)amino)piperidine-2,6-dione] | B (B is defined as substrate protein remaining % > 80%) | B (B is defined as substrate protein remaining % > 80%) | B (B is defined as substrate protein remaining % > 80%) | B (B is defined as substrate protein remaining % > 80%) | B (B is defined as substrate protein remaining % > 80%) | A (A is defined as 0% ≤ substrate protein remaining % ≤ 80%) | –
8 | O=C1CCC(c2cc(CO)ccn2)C(=O)N1 (stereo not shown) [GT-07050, 3-(4-(hydroxymethyl)pyridin-2-yl)piperidine-2,6-dione] | A (A is defined as 0% ≤ substrate protein remaining % ≤ 80%) | A (A is defined as 0% ≤ substrate protein remaining % ≤ 80%) | A (A is defined as 0% ≤ substrate protein remaining % ≤ 80%) | A (A is defined as 0% ≤ substrate protein remaining % ≤ 80%) | B (B is defined as substrate protein remaining % > 80%) | B (B is defined as substrate protein remaining % > 80%) | –
9 | O=Cc1ccc(NC2CCC(=O)NC2=O)cn1 (stereo not shown) [GT-07640, 5-((2,6-dioxopiperidin-3-yl)amino)picolinaldehyde] | A (A is defined as 0% ≤ substrate protein remaining % ≤ 80%) | A (A is defined as 0% ≤ substrate protein remaining % ≤ 80%) | A (A is defined as 0% ≤ substrate protein remaining % ≤ 80%) | B (B is defined as substrate protein remaining % > 80%) | A (A is defined as 0% ≤ substrate protein remaining % ≤ 80%) | A (A is defined as 0% ≤ substrate protein remaining % ≤ 80%) | –
10 | CC(C)(C)[Si](C)(C)OCc1cc(NC2CCC(=O)NC2=O)ncc1F (stereo not shown) [GT-07724, 3-((4-(((tert-butyldimethylsilyl)oxy)methyl)-5-fluoropyridin-2-yl)amino)piperidine-2,6-dione] | A (A is defined as 0% ≤ substrate protein remaining % ≤ 80%) | A (A is defined as 0% ≤ substrate protein remaining % ≤ 80%) | A (A is defined as 0% ≤ substrate protein remaining % ≤ 80%) | B (B is defined as substrate protein remaining % > 80%) | A (A is defined as 0% ≤ substrate protein remaining % ≤ 80%) | A (A is defined as 0% ≤ substrate protein remaining % ≤ 80%) | –
11 | O=C1CCC(c2ccc(CN3C4CCC3CN(c3ccc(-c5cc(F)c6c(c5)C(=O)N(C(C(=O)Nc5nccs5)c5ncn7c5CCC7)C6)cc3)C4)cc2)C(=O)N1 (stereo not shown) [GT-06252, 2-(6,7-dihydro-5H-pyrrolo[1,2-c]imidazol-1-yl)-2-(6-(4-(8-(4-(2,6-dioxopiperidin-3-yl)benzyl)-3,8-diazabicyclo[3.2.1]octan-3-yl)phenyl)-4-fluoro-1-oxoisoindolin-2-yl)-N-(thiazol-2-yl)acetamide] | – | – | – | – | – | – | < 500 nM
